Laboratory results from patent US20060263802A1 (priority 2003, published 2006).

Tests used:
Type in all cases: binding
[1] = test system: human monoclonal antibody CR57
[2] = test system: human monoclonal antibody CR57; remark: listed apart in the source
[3] = test system: human monoclonal antibody CRJB
[4] = test system: human monoclonal antibody CRJB; remark: listed apart in the source
[5] = test system: human monoclonal antibody CRJA
[6] = test system: human monoclonal antibody CRJA; remark: listed apart in the source

Sequence	Binding of CR57 to linear peptide (PEPSCAN-ELISA signal) [1]	Binding of CR57 (10 μg/ml) to looped/cyclic peptide (PEPSCAN-ELISA) [2]	Binding of CRJB to linear peptide (PEPSCAN-ELISA signal) [3]	Binding of CRJB (10 μg/ml) to looped/cyclic peptide (PEPSCAN-ELISA) [4]	Binding of CRJA (10 μg/ml) to looped/cyclic peptide (PEPSCAN-ELISA) [5]	Binding of CRJA to linear peptide (PEPSCAN-ELISA signal) [6]	Binding of CR57 (10 μg/ml) to looped/cyclic peptide (PEPSCAN-ELISA signal) [2]	Binding of CRJB (10 μg/ml) to looped/cyclic peptide (PEPSCAN-ELISA signal) [4]	Binding of CRJA (10 μg/ml) to looped/cyclic peptide (PEPSCAN-ELISA signal) [5]	Binding of human monoclonal antibody CR57 to linear peptide (PEPSCAN-ELISA signal) [1]	Binding of CR57 to looped/cyclic peptide (PEPSCAN-ELISA signal) [2]	Binding of human monoclonal antibody CRJB to linear peptide (PEPSCAN-ELISA signal) [3]	Binding of CRJB to looped/cyclic peptide (PEPSCAN-ELISA signal) [4]	Binding of CRJA to looped/cyclic peptide (PEPSCAN-ELISA signal) [5]	Binding of human monoclonal antibody CRJA to linear peptide (PEPSCAN-ELISA signal) [6]	binding of antibody CR57 to looped/cyclic peptide (PEPSCAN OD) [2]
GCLRVGGRCHPHVNG	85	103	125	112	105	98										
GCTNLSGFSYMELKV	55		114			72	63	55	55							
GDEAEDFVEVHLPDV										46	87	124	87	82	93	
GDPRYEESLHNPYPD	36		98			96	64	82	90							
GFGKAYTIFNKTLME	78	94	123	83	86	98										
GFSYMELKVGYILAI	65		111			91	77	57	71							
GFTCTGVVTEAENYT	71		86			90	94	68	87							
GFVDERGLYKSLKGA	84	107	120	86	87	104										
GGRCHPHVNGVFFNG	86	134	119	110	107	110										
GIILGPDGNVLIPEM	107	108	132	93	92	107										
GKAYTIFNKTLMEAD	76	114	127	100	107	100										
GKCSGVAVSSTYCST	92		143			103	79	74	97							
GKRASKGSETCGFVD	92	82	124	71	93	97										
GLRLMDGTWVAMQTS	104	120	138	99	100	108										
GLYKSLKGACKLKLC	94	86	129	97	100	91										
GMSCDIFTNSRGKRA	54		120			71	79	78	51							
GNVLIPEMQSSLLQQ	96	99	120	103	78	85										
GPDGNVLIPEMQSSL	86	141	154	100	112	91										
GPWSPIDIHHLSCPN	68		114			72	78	78	97							
GRCHPHVNGVFFNGI	117	110	113	102	104	100										
GSETCGFVDERGLYK	57	64	115	71	64	56										
GTWVAMQTSNETKWC	58	71	113	85	62	61										
GVAVSSTYCSTNHDY	79		114			83	111	80	96							
GVFFNGIILGPDGNV	58	57	116	85	68	84										
GVLGLRLMDGTWVAM	89	118	148	83	104	107										
GVVTEAENYTNFVGY	86		111			76	83	71	90							
GYILAIKMNGFTCTG	75		90			73	87	61	72							
GYVTTTFKRKHFRPT	70		123			87	200	138	101							clearly bound
HDFRSDEIEHLVVEE	69	24	107	79	111	78										
HDYTIWMPENPRLGM	82		125			110	88	96	97							
